In patent US20210212957A1, “MEDICAL DEVICE FOR PREVENTING AND/OR TREATING INFECTIONS OF SKIN LESIONS” (FASTMEDITALIA S.R.L., priority 2020, published 2021):

The molecules below were run on Staphylococcus aureus (gram-positive bacterium; ATCC 6538) (assay: bacterial reduction in a bacterial suspension in dynamic contact with the medical device). Conditions: temperature environment; dynamic contact time 1 hour; 50 grams of bacterial suspension at 10^5 cells, 1 gram of medical device where present.
Assay type: cell-based
Method: In Table 1, 50 grams of bacterial suspension at a concentration of 10^5 cells was subjected to dynamic contact with 1 gram of the medical device in the presence of cocamido-propyl-betaine (an amphoteric surfactant).
The same experiment was then carried out using no surfactant at all (Table 2) or non-ionic or anionic surfactants (Tables 3 and 4).

Row | Molecule | Bacterial reduction % [%]
1 | CCCCCCCCCCCCOS(=O)(=O)[O-].[Na+] [Sodium dodecilsulphate] | 16
2 | Polyoxyethylenesorbitan monolaurate | 5
3 | cocamidopropyl betaine [2 g/l of cocamidopropyl betaine] | 12
